Measured values reported in ChEMBL document CHEMBL1201862, “PubChem BioAssay data set” (2004).
Where a name gives a salt, the structure may show the parent alone.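 These data come from cells grown in 96-well plates and exposed to compound for 48 hours at five concentrations. Abbreviation: GI50, concentration required for 50% inhibition of growth.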 Calls of active or inactive are those of the source. Cut-off read from the data, not from the text of the source: active = GI50 up to about 1.1 µM and inactive = higher.

How the values were obtained:
Assay in all cases: NCI anticancer screen, dose series, 48 h
[1] = test system: 786-0
[2] = test system: A498
[3] = test system: A549
[4] = test system: ACHN
[5] = test system: CAKI-1
[6] = test system: COLO 205
[7] = test system: DMS-273
[8] = test system: Hs-578T
[9] = test system: LOX IMVI
[10] = test system: MDA-MB-231
[11] = test system: MOLT-4
[12] = test system: Malme-3M
[13] = test system: OVCAR-3
[14] = test system: SF-539
[15] = test system: SK-MEL-28
[16] = test system: SK-OV-3
[17] = test system: SN12C
[18] = test system: SW-620
[19] = test system: T47D
[20] = test system: UACC-62

SMILES | GI50 [1] | GI50 [2] | GI50 [3] | GI50 [4] | GI50 [5] | GI50 [6] | GI50 [7] | GI50 [8] | GI50 [9] | GI50 [10] | GI50 [11] | GI50 [12] | GI50 [13] | GI50 [14] | GI50 [15] | GI50 [16] | GI50 [17] | GI50 [18] | GI50 [19] | GI50 [20]
O=C(c1ccc(F)cc1)c1cccc(C(=O)c2ccc(F)cc2)n1 | 37.8 µM (inactive) | > 52.7 µM (inactive) | 69.2 µM (inactive) | 46.2 µM (inactive) | 28 µM (inactive) | > 100 µM (inactive) | 26.3 µM (inactive) | 25.6 µM (inactive) | 60.7 µM (inactive) | 38.6 µM (inactive) | > 100 µM (inactive) | > 77.6 µM (inactive) | > 100 µM (inactive) | 30.8 µM (inactive) | > 100 µM (inactive) | 1.53 µM (inactive) | 55.2 µM (inactive) | > 83.9 µM (inactive) | 34.4 µM (inactive) | 44.2 µM (inactive)
Cc1n(CC(C)C)c2c([n+]1C)C(=O)c1ccccc1C2=O | 0.578 µM (active) | 0.32 µM (active) | 0.114 µM (active) | 0.432 µM (active) | 1.17 µM (inactive) | < 0.0152 µM (active) | < 0.0484 µM (active) | 0.565 µM (active) | 0.0746 µM (active) | 0.0486 µM (active) | 0.0478 µM (active) | 0.0957 µM (active) | < 0.01 µM (active) | 0.0479 µM (active) | 1.06 µM (active) | 0.35 µM (active) | 0.0255 µM (active) | 0.0432 µM (active) | 0.0371 µM (active) | 0.198 µM (active)
CCOC(=O)c1cc2c(nc1N)-c1ncccc1CC2 | 82.2 µM (inactive) | 76.7 µM (inactive) | 38.5 µM (inactive) | 61.7 µM (inactive) | > 100 µM (inactive) | 31.5 µM (inactive) | 43.5 µM (inactive) |  | 65.6 µM (inactive) |  | 47.6 µM (inactive) | > 100 µM (inactive) | 18.5 µM (inactive) | > 100 µM (inactive) | 36.6 µM (inactive) | 45.1 µM (inactive) | 94.4 µM (inactive) | 59.8 µM (inactive) |  | 58.1 µM (inactive)
Cc1ccc(C(=O)N2CCCCC2)cc1/N=N/N(C)C | > 100 µM (inactive) | > 100 µM (inactive) | > 100 µM (inactive) | > 100 µM (inactive) | > 100 µM (inactive) | > 100 µM (inactive) | > 100 µM (inactive) |  | > 100 µM (inactive) |  | > 100 µM (inactive) | > 100 µM (inactive) | > 100 µM (inactive) | > 100 µM (inactive) | > 100 µM (inactive) | > 10 µM (inactive) | > 100 µM (inactive) | > 100 µM (inactive) |  | > 100 µM (inactive)
Cc1cc2c(=O)n(-c3ccc(F)cc3)c(C)nc2c(C(=O)O)c1C | > 100 µM (inactive) | > 100 µM (inactive) | > 100 µM (inactive) | > 100 µM (inactive) | > 100 µM (inactive) | > 100 µM (inactive) | > 100 µM (inactive) |  | > 100 µM (inactive) |  | > 100 µM (inactive) | > 100 µM (inactive) | > 100 µM (inactive) | > 100 µM (inactive) | > 100 µM (inactive) | > 100 µM (inactive) | > 100 µM (inactive) | > 100 µM (inactive) |  | > 100 µM (inactive)
Cc1nc(-n2nc(-c3ccccc3)cc2-c2ccccc2)sc1C(=O)/C=C/c1ccccc1 | > 100 µM (inactive) | > 100 µM (inactive) | 75.3 µM (inactive) | > 100 µM (inactive) | 9.79 µM (inactive) | > 100 µM (inactive) | > 100 µM (inactive) |  | > 100 µM (inactive) |  | 31.8 µM (inactive) | > 100 µM (inactive) | 81.1 µM (inactive) | > 100 µM (inactive) | > 100 µM (inactive) | > 100 µM (inactive) | > 100 µM (inactive) | 59 µM (inactive) |  | > 100 µM (inactive)
O=C(Nc1ccc([N+](=O)[O-])cc1)C1C(=O)C(=O)N(c2ccc([N+](=O)[O-])cc2)C1=O (stereo unspecified) | 67.1 µM (inactive) | > 100 µM (inactive) | > 100 µM (inactive) | 32.8 µM (inactive) | 74.6 µM (inactive) | 35.8 µM (inactive) | 11.6 µM (inactive) |  | 16.1 µM (inactive) |  | > 100 µM (inactive) | > 100 µM (inactive) | > 100 µM (inactive) | 94.8 µM (inactive) | > 100 µM (inactive) | > 100 µM (inactive) | > 100 µM (inactive) | 17.6 µM (inactive) |  | 2.72 µM (inactive)
COC(=O)C[C@](O)(CCCC(C)(C)O)C(=O)O[C@@H]1C(OC)=C[C@]23CCCN2CCc2cc4c(cc2[C@H]13)OCO4 [OMACETAXINE MEPESUCCINATE] | 0.893 µM (active) | 0.0395 µM (active) |  | 0.617 µM (active) | 0.203 µM (active) | 0.218 µM (active) | 0.00679 µM (active) | 1.07 µM (active) | 0.0444 µM (active) | 1.7 µM (inactive) | 0.0123 µM (active) | 0.0568 µM (active) |  | 0.056 µM (active) | 0.111 µM (active) | 0.122 µM (active) | 0.121 µM (active) | 0.0682 µM (active) | 0.383 µM (active) | 0.113 µM (active)
O=C1C(Br)=CC2(C=C1Br)CCNC1=C2C2=NCCc3c[nH]c(c32)C1=O | 0.124 µM (active) | 1.23 µM (inactive) | 0.951 µM (active) | 0.0962 µM (active) | 0.134 µM (active) | 0.0149 µM (active) | 0.158 µM (active) | 0.445 µM (active) | 0.0615 µM (active) | 0.149 µM (active) | 0.0315 µM (active) | 0.0415 µM (active) | 0.0249 µM (active) | 0.246 µM (active) | 0.163 µM (active) | 1.9 µM (inactive) | 0.146 µM (active) | 0.0255 µM (active) | 0.0828 µM (active) | 0.0933 µM (active)
CC(=O)N(C)c1ccc(Nc2cc(C)nc3ccc4nc[nH]c4c23)cc1 [ACODAZOLE HYDROCHLORIDE] | 4.81 µM (inactive) | 10.4 µM (inactive) | 7.59 µM (inactive) | 4.5 µM (inactive) | 5.04 µM (inactive) | 4.38 µM (inactive) | 9.38 µM (inactive) | 9.14 µM (inactive) | 5.15 µM (inactive) | 13.6 µM (inactive) | 1.72 µM (inactive) | 7.64 µM (inactive) | 8.63 µM (inactive) | 7.38 µM (inactive) | 15.1 µM (inactive) | 10.5 µM (inactive) | 7.21 µM (inactive) | 4.88 µM (inactive) | 6.79 µM (inactive) | 10.2 µM (inactive)
CC1CCC(=O)NCCCCC(=O)N1 (stereo unspecified) | > 100 µM (inactive) | > 100 µM (inactive) | > 100 µM (inactive) | > 100 µM (inactive) | > 100 µM (inactive) | > 100 µM (inactive) | > 100 µM (inactive) |  | > 100 µM (inactive) |  | > 100 µM (inactive) | > 100 µM (inactive) | > 100 µM (inactive) | > 100 µM (inactive) | > 100 µM (inactive) | > 100 µM (inactive) | > 100 µM (inactive) | > 100 µM (inactive) |  | > 100 µM (inactive)
CN1CCCNCCN(CCc2ccccn2)CCCN(C)CC1 | 24.2 µM (inactive) | > 100 µM (inactive) | > 100 µM (inactive) | > 100 µM (inactive) | > 100 µM (inactive) | > 43.5 µM (inactive) | 27.8 µM (inactive) |  | > 50.1 µM (inactive) |  | > 100 µM (inactive) | > 100 µM (inactive) | > 100 µM (inactive) | > 100 µM (inactive) | > 100 µM (inactive) | > 100 µM (inactive) | > 100 µM (inactive) | > 33.8 µM (inactive) |  | > 100 µM (inactive)
CCN(CCCl)CCNc1c2ccccc2nc2ccc(OC)cc12 | 0.254 µM (active) | 1.78 µM (inactive) | 0.557 µM (active) | 0.127 µM (active) | 0.361 µM (active) | 0.136 µM (active) | 0.294 µM (active) |  | 0.31 µM (active) |  | 0.0426 µM (active) | 0.861 µM (active) | 1.38 µM (inactive) | 0.502 µM (active) | 1.52 µM (inactive) | 1.35 µM (inactive) | 0.548 µM (active) | 0.132 µM (active) |  | 0.551 µM (active)
COC(=O)CCC(=O)Nc1cc(C)ccc1C | > 100 µM (inactive) | > 100 µM (inactive) | > 100 µM (inactive) | > 100 µM (inactive) | > 100 µM (inactive) | > 100 µM (inactive) | > 100 µM (inactive) |  | > 100 µM (inactive) |  | > 100 µM (inactive) | > 100 µM (inactive) | > 100 µM (inactive) | > 100 µM (inactive) | > 100 µM (inactive) | > 100 µM (inactive) | > 100 µM (inactive) | > 100 µM (inactive) |  | > 100 µM (inactive)
OC[C@H]1O[C@@H](n2cnc3c(S)ncnc32)[C@H](O)[C@@H]1O [THIOINOSINE] | > 2500 µM (inactive) | > 2200 µM (inactive) | > 2500 µM (inactive) | > 2500 µM (inactive) | > 2500 µM (inactive) | > 2230 µM (inactive) | 971 µM (inactive) | > 2440 µM (inactive) | 1840 µM (inactive) | > 2500 µM (inactive) | 2300 µM (inactive) | 1860 µM (inactive) | 1160 µM (inactive) | > 2500 µM (inactive) | > 2500 µM (inactive) | 603 µM (inactive) | > 2500 µM (inactive) | > 2500 µM (inactive) | 1830 µM (inactive) | 1250 µM (inactive)
